Data as given in patent US11998516B2, “Methods and compositions for treating depression using cyclobenzaprine” (TONIX PHARMA HOLDINGS LIMITED, priority 2011, dated 2024).

Tests used:
fibromyalgia patients = conditions: 10 to 40 mg over a 12-week period; cited from earlier work
[1] = test system: patients with fibromyalgia
Procedure: Hospital Anxiety and Depression Scale (HAD). The Hospital Anxiety and Depression Scale (HAD) is a widely used patient self-rated scale with 14 questions (7 “anxiety” and 7 “depression” questions) that ranges from 0-42.
The HAD Depression Subscale score was also analyzed.

[2] = 1-4 mg at bedtime, week 8, p=0.012
[3] = 1-4 mg at bedtime, week 8, p=0.017

## CN(C)CCC=C1c2ccccc2C=Cc2ccccc21 [cyclobenzaprine, 3-(5H-dibenzo[a,d]cyclohepten-5-ylidene)-N,N-dimethyl-1-propanamine]
Fibromyalgia patients
  muscle tightness: reduction
  pain score: significantly improved
  quality of sleep: significantly improved
  total number of tender points: reduction
[1]; 1-4 mg at bedtime, week 8
  HAD depression subscale at week 8: 4.9
[1]; [2]
  decrease (improvement) of HAD score, baseline to week 8: 3.3
  percent decrease of HAD score, baseline to week 8: 24.1%
[1]; [3]
  decrease (improvement) of HAD depression subscale, baseline to week 8: 1.4
  percent decrease of HAD depression subscale, baseline to week 8: 22.2%
[1]; 1-4 mg at bedtime, week 8, scale range 0-42
  HAD score at week 8: 10.4
[1]; fibromyalgia patients, before treatment
  HAD depression subscale at baseline: 6.3
[1]; fibromyalgia patients, before treatment, scale range 0-42
  HAD score at baseline: 13.7
[1]; week 8, VLD CBP vs placebo groups
  comparison of change from baseline in HAD scale versus placebo: did not reveal a significant effect
[1]; week 8, VLD CBP vs placebo groups, p=0.023
  comparison of change from baseline in HAD Depression subscore versus placebo: significant improvement
